Assay results reported in PubChem BioAssay AID248 (DTP/NCI, 2004).
Toxic doses and inconclusive results are not listed. No stated cut-off is given here; in the data, active means T/C of 150% or more; inactive means T/C below 125%. Square brackets hold non-standard residues; d marks the D form. Peptide text beside a SMILES is read from it. * marks the point of attachment. ξ: configuration not given here. Cbz = O=C(OCc1ccccc1)*; ξNle = CCCCC(N)C(=O)O

System: L1210 leukemia ip in BDF1 mice, survival T/C
Assay: NCI In Vivo Anticancer Drug Screen. Data for tumor model L1210 Leukemia (intraperitoneal) in B6D2F1 (BDF1) mice
Settings: endpoint: mean survival time, higher = longer survival
In short: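 In this screen, tumor-bearing mice given compound are compared to those given vehicle, and their survival values are reported as a treated-to-control quotient.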

[1] = dose: 100.0 mg/kg/injection, schedule: Q01DX001 (ip), vehicle: Klucel (hydroxypropylcellulose) (HPC)
[2] = dose: 100.0 mg/kg/injection, schedule: Q04DX003 (ip), vehicle: Klucel (hydroxypropylcellulose) (HPC)
[3] = dose: 200.0 mg/kg/injection, schedule: Q01DX001 (ip), vehicle: Klucel (hydroxypropylcellulose) (HPC)
[4] = dose: 400.0 mg/kg/injection, schedule: Q01DX001 (ip), vehicle: Klucel (hydroxypropylcellulose) (HPC)
[5] = dose: 100.0 mg/kg/injection, schedule: Q01DX009 (ip), vehicle: Klucel (hydroxypropylcellulose) (HPC)
[6] = dose: 200.0 mg/kg/injection, schedule: Q01DX009 (ip), vehicle: Klucel (hydroxypropylcellulose) (HPC)
[7] = dose: 200.0 mg/kg/injection, schedule: Q04DX003 (ip), vehicle: Klucel (hydroxypropylcellulose) (HPC)
[8] = dose: 400.0 mg/kg/injection, schedule: Q04DX003 (ip), vehicle: Klucel (hydroxypropylcellulose) (HPC)
[9] = dose: 100.0 mg/kg/injection, schedule: Q04DX003 (ip), vehicle: saline
[10] = dose: 200.0 mg/kg/injection, schedule: Q04DX003 (ip), vehicle: saline
[11] = dose: 400.0 mg/kg/injection, schedule: Q04DX003 (ip), vehicle: saline
[12] = dose: 100.0 mg/kg/injection, schedule: Q01DX009 (ip), vehicle: saline
[13] = dose: 100.0 mg/kg/injection, schedule: Q04DX003 (ip), vehicle: saline with Tween-80
[14] = dose: 200.0 mg/kg/injection, schedule: Q04DX003 (ip), vehicle: saline with Tween-80
[15] = dose: 400.0 mg/kg/injection, schedule: Q04DX003 (ip), vehicle: saline with Tween-80
[16] = dose: 100.0 mg/kg/injection, schedule: Q01DX009 (ip), vehicle: saline with Tween-80
[17] = dose: 200.0 mg/kg/injection, schedule: Q01DX009 (ip), vehicle: saline with Tween-80
[18] = dose: 400.0 mg/kg/injection, schedule: Q01DX009 (ip), vehicle: saline with Tween-80
[19] = dose: 100.0 mg/kg/injection, schedule: Q01DX001 (ip), vehicle: carboxymethylcellulose (CMC)
[20] = dose: 200.0 mg/kg/injection, schedule: Q01DX001 (ip), vehicle: carboxymethylcellulose (CMC)
[21] = dose: 400.0 mg/kg/injection, schedule: Q01DX001 (ip), vehicle: carboxymethylcellulose (CMC)
[22] = dose: 25.0 mg/kg/injection, schedule: Q04DX003 (ip), vehicle: saline with Tween-80
[23] = dose: 50.0 mg/kg/injection, schedule: Q01DX009 (ip), vehicle: saline with Tween-80

Measured: T/C

CN(C)C(=S)SCCOc1ccc(Cl)cc1Cl
inactive: dose: 25.0 mg/kg/injection, schedule: Q04DX003 (ip), vehicle: Klucel (hydroxypropylcellulose) (HPC) 95 % of control | dose: 50.0 mg/kg/injection, schedule: Q04DX003 (ip), vehicle: Klucel (hydroxypropylcellulose) (HPC) 98 % of control | [1] 96 % of control | [2] 101 % of control | [3] 100 % of control | [4] 104 % of control

Cc1ccc(S(=O)(=O)OCC2C(c3ccccc3)CCC(c3ccccc3)C2COS(=O)(=O)c2ccc(C)cc2)cc1 (stereo not drawn)
inactive: [5] 90 % of control | [2] 103 % of control | [6] 94 % of control | [7] 105 % of control | [8] 100 % of control

O=C(O)C1C2C=CC(CC2)C1C(=O)O (stereo not drawn)
inactive: [9] 96 % of control | [10] 90 % of control | [11] 94 % of control

CN1CSCSC1
inactive: dose: 50.0 mg/kg/injection, schedule: Q01DX009 (ip), vehicle: saline 104 % of control | [12] 98 % of control | [13] 101 % of control | [14] 100 % of control | [15] 97 % of control

CCn1c(C)[n+](CC)c2ccc(C(C)=O)cc21
inactive: dose: 100.0 mg/kg/injection, schedule: Q01DX001 (ip), vehicle: saline with Tween-80 97 % of control

CCCCCCCCC(O)CCCCCCCCC(=O)O (stereo not drawn)
inactive: [16] 101 % of control | [17] 97 % of control | [18] 86 % of control

Cc1nonc1-c1ccc2c(c1)OCO2
inactive: [2] 103 % of control | [7] 97 % of control | [8] 101 % of control

CCOC(=O)CCCc1ccc(N=NN(C)CC(C)C)cc1
inactive: [19] 107 % of control | dose: 100.0 mg/kg/injection, schedule: Q01DX009 (ip), vehicle: carboxymethylcellulose (CMC) 116 % of control | [20] 102 % of control | dose: 200.0 mg/kg/injection, schedule: Q01DX009 (ip), vehicle: carboxymethylcellulose (CMC) 107 % of control | [21] 113 % of control

COC(=O)c1ccccc1C1(c2ccccc2C(=O)OC)OC(=O)c2ccccc21
inactive: [16] 97 % of control | [13] 98 % of control | [17] 101 % of control | [14] 93 % of control | [18] 97 % of control | [15] 96 % of control

CC1CCC(C)C1NC1=NCCO1 (stereo not drawn)
inactive: dose: 6.25 mg/kg/injection, schedule: Q01DX009 (ip), vehicle: saline with Tween-80 90 % of control | dose: 12.5 mg/kg/injection, schedule: Q01DX009 (ip), vehicle: saline with Tween-80 95 % of control | dose: 25.0 mg/kg/injection, schedule: Q01DX009 (ip), vehicle: saline with Tween-80 90 % of control | [22] 93 % of control | dose: 50.0 mg/kg/injection, schedule: Q04DX003 (ip), vehicle: saline with Tween-80 93 % of control | [13] 87 % of control

COc1cccc(C(C)(C)CC(=O)O)c1
inactive: [23] 90 % of control | [16] 90 % of control | [17] 87 % of control

N#Cc1c(/N=C/c2ccc3c(c2)CCC3)oc(-c2ccccc2)c1-c1ccccc1
inactive: [2] 103 % of control | [7] 97 % of control | [8] 94 % of control

Cc1cc(C)cc(OCCO)c1
inactive: dose: 100.0 mg/kg/injection, schedule: Q04DX002 (ip), vehicle: Klucel (hydroxypropylcellulose) (HPC) 97 % of control | dose: 200.0 mg/kg/injection, schedule: Q04DX002 (ip), vehicle: Klucel (hydroxypropylcellulose) (HPC) 102 % of control | dose: 400.0 mg/kg/injection, schedule: Q04DX002 (ip), vehicle: Klucel (hydroxypropylcellulose) (HPC) 91 % of control

CCCCC(NC(=O)OCc1ccccc1)C(=O)NCC(=O)OCC (stereo not drawn) (Cbz-[ξNle]-Gly-OEt)
inactive: [23] 97 % of control | [16] 97 % of control | [17] 104 % of control

Cc1cc(N)on1
inactive: [12] 97 % of control | [9] 96 % of control | dose: 200.0 mg/kg/injection, schedule: Q01DX009 (ip), vehicle: saline 106 % of control | [10] 101 % of control | dose: 400.0 mg/kg/injection, schedule: Q01DX009 (ip), vehicle: saline 88 % of control | [11] 123 % of control

C1=CC2CCC1CC2c1ccccc1 (stereo not drawn)
inactive: dose: 100.0 mg/kg/injection, schedule: Q01DX001 (ip), vehicle: saline 104 % of control | dose: 200.0 mg/kg/injection, schedule: Q01DX001 (ip), vehicle: saline 105 % of control | dose: 400.0 mg/kg/injection, schedule: Q01DX001 (ip), vehicle: saline 114 % of control

CN(C)N1CCC2(CCC(C(C)(C)C)CC2)CC1
inactive: dose: 50.0 mg/kg/injection, schedule: Q01DX001 (ip), vehicle: carboxymethylcellulose (CMC) 101 % of control | [19] 95 % of control

COC1(OC)C2C=CC1C1C(=O)CC1C(=O)C2 (stereo not drawn)
inactive: dose: 75.0 mg/kg/injection, schedule: Q01DX009 (ip), vehicle: Klucel (hydroxypropylcellulose) (HPC) 108 % of control | [1] 100 % of control | dose: 150.0 mg/kg/injection, schedule: Q01DX009 (ip), vehicle: Klucel (hydroxypropylcellulose) (HPC) 113 % of control | [3] 103 % of control | dose: 300.0 mg/kg/injection, schedule: Q01DX009 (ip), vehicle: Klucel (hydroxypropylcellulose) (HPC) 105 % of control | [4] 90 % of control

O=C(Nc1cccnc1)c1ccccc1
inactive: dose: 6.25 mg/kg/injection, schedule: Q04DX003 (ip), vehicle: saline with Tween-80 92 % of control | dose: 12.5 mg/kg/injection, schedule: Q04DX003 (ip), vehicle: saline with Tween-80 97 % of control | [22] 99 % of control

Cc1ccc(N=C(c2ccc([N+](=O)[O-])cc2)c2ccc([N+](=O)[O-])cc2)cc1
inactive: [5] 97 % of control | [2] 96 % of control | [6] 96 % of control | [7] 102 % of control | dose: 400.0 mg/kg/injection, schedule: Q01DX009 (ip), vehicle: Klucel (hydroxypropylcellulose) (HPC) 102 % of control | [8] 96 % of control

Nc1c2c(=O)[nH]c(=O)c2c(N)c2c(=O)c3ccccc3c(=O)c12
inactive: dose: 100.0 mg/kg/injection, schedule: Q01DX001 (ip), vehicle: acetone 93 % of control | dose: 200.0 mg/kg/injection, schedule: Q01DX001 (ip), vehicle: acetone 103 % of control | dose: 400.0 mg/kg/injection, schedule: Q01DX001 (ip), vehicle: acetone 103 % of control

COC(=O)c1cc(Cl)c(C(=O)OC)cc1Cl
inactive: [2] 90 % of control | [7] 98 % of control | [8] 102 % of control

CCC(=O)c1cc([N+](=O)[O-])ccc1N
inactive: [23] 100 % of control | [16] 100 % of control | [17] 100 % of control

Cc1cc(C)c2ccc(SC#N)c-2c(C)c1
inactive: [19] 106 % of control | [20] 95 % of control | [21] 101 % of control
